In patent US7253177B2, “Synthesis and antimalarial activity of pyrrolo[3,2-f]quinazoline-1,3-diamine derivatives” (United States of America as Represented by the Secretary of …, priority 2004, dated 2007):

Experiments:
P. berghei ANKA = experiment: In vivo antimalarial study against P. berghei in rats; set-up: species or system Plasmodium berghei
[1] = Host toxicity in animal models (general statements); format: in vivo; conditions: any dose, all species of animal models studied
[2] = tested on: Plasmodium yoelii (17x) sporozoites; experiment: Sporozoite induced test in mice; format: in vivo; conditions: P. yoelii; for Number of Mice Cured: oral
Method: B. Antimalarial Activities: (a). In Vitro Antimalarial Studies. The in vitro assays were conducted by using a modification of the semiautomated microdilution technique of Desjardins et al and Chulay et al.. Four P. falciparum malaria parasite clones, from CDC Indochina III (W-2), CDC Sierra Leone I (D-6), Southeast Asia Isolates (TM91C235) and RCS (Isolates from Brazil) were utilized in susceptibility testing. They were derived by direct visualization and micromanipulation from patient isolates. The W-2 clone is susceptible to mefloquine but resistant to chloroquine, sulfadoxine, pyrimethamine, and quinine, whereas the D-6 clone is naturally resistant to mefloquine but susceptible to chloroquine, sulfadoxine, pyrimethamine and quinine. Test compounds were initially dissolved in DMSO and diluted 400 fold in RPMI 1640 culture medium supplemented with 25 mM Hepes, 32 mM NaHCO3 and 10% Albumax I (Gibco BRL, Grand Island, N.Y.). These solutions were subsequently serially diluted two-fold with a Biomek 1000 (Beckman, Fullerton, Calif.) over 11 different concentrations. The parasites were exposed to serial dilutions of each compound for 48 hrs and incubated at 37° C. with 5% O2, 5% CO2 and 90% N2 prior to the addition of [^3H]hypoxanthine. After a further incubation of 18 hrs, parasite DNA was harvested from each microtiter well using Packard Filtermate 196 Harvester (Meriden, Conn.) onto glass filters. Uptake of [^3H]hypoxanthine was measured with a Packard Topcount Scintillation. Concentration-response data were analyzed by a non-linear regression logistic dose response model and the IC50 values (50% inhibitory concentrations) for each compound were calculated. (Table 3). (b). In Vivo Antimalarial Studies against P. berghei in mice: The in vivo efficacy of the artelinic acid analogs were determined in a modified Thompson test. This test measures the survivability of mice and parasitemia clearance following administration of drug on days 3-5 post infection. In brief, 5×10^6 P. berghei-infected erythrocytes (KBG-173 strain) were inoculated intraperitoneally to female mice that weighed 24-30 g. By day three post-infection, parasitemia ranged from 1.0-3.7%. Each drug, dissolved in 5% sodium bicarbonate, was administered PO twice daily from day 3-5 post-infection. Total doses for each drug ranged from 1.5-384 mg/kg with 8 mice included in each dosage group. The percent suppression of parasitemia in the treated mice compared to the untreated controls was determined for each test compound; the SD-50 (fifty percent suppression dose) and SD-90 were determined from a non-linear regression logistic dose response fit at day 6 parasitemia data. Survival of mice to day 60 post-infection was considered a cure (C). Compounds were considered active (A) when the survival time of the treated mice was greater than twice the control mice, i.e., 12-14 day (Table 4-5). (c). Sporozoite Induced Test Each compound is ground with a mortar & pestle and suspended in 0.5% hydroxyethylcellulose—0.1% Tween 80 for compounds to be administered PO and those given SC are suspended in peanut oil. Each compound is prepared at 3 different dose levels as requested by WRAIR. Compounds are administered either PO or SC to mice once 4 hr before inoculation of sporozoites. Four-week-old male CD-1 mice, purchased from Charles River and weighing 16-17 g, are placed 5 per cage and allowed to acclimate for 4 days before being treated and then inoculated with sporozoites. They are fed food and water ad-lib and maintained at 76° F. with 12 hr light and 12 hr darkness. The cages and water bottles are changed biweekly. The mice are weighed on Days 0, 3 and 6 then biweekly when blood films are taken. Plasmodium yoelii (17×) is used to infect mice that will be used to infect the mosquitoes. […] Whole body weights are taken on Day 0 and Day 6 then twice a week for 31 days. A blood film is taken on Day 5 and then twice a week for 31 days. Mice loosing >20% of their body weight will be sacrificed. […]

## CC(=O)N(C(C)=O)c1nc(N(C(C)=O)C(C)=O)c2c(ccc3c2ccn3Cc2ccccc2C(F)(F)F)n1 [Compound 3e, 1,3-Bis(diacetylamino)-7-(2-trifluoromethyl)benzyl-7H-pyrrolo[3,2-f]quinazoline]
P. berghei ANKA; 5 mg/kg intragastric daily x3 (days 6, 7, 8 post-inoculation)
  cure against P. berghei in rats: 100%
P. berghei ANKA; 10 mg/kg intragastric daily x3
  cure against P. berghei in rats: 100%
P. berghei ANKA; 20 mg/kg intragastric daily x3
  cure against P. berghei in rats: 100%
[1]
  host toxicity in efficacy studies: No host toxicity
[2]; dose groups from 0.625 to 40 mg/kg
  mice cured: 100%
[2]; doses from 0.65 to 40 mg/kg given orally for 3 consecutive days
  parasitemia formation in sporozoite challenged mouse: completely prevented parasitemia formation
[2]; 0.15625 mg/kg
  Number of Mice Cured: 4/5
[2]; 0.3125 mg/kg
  Number of Mice Cured: 4/5
[2]; 0.625 mg/kg
  Number of Mice Cured: 5/5
[2]; 2.5 mg/kg
  Number of Mice Cured: 5/5
[2]; 10 mg/kg
  Number of Mice Cured: 5/5
[2]; 40 mg/kg
  Number of Mice Cured: 5/5
